Assay results: US20070173490A1, “Novel solid forms of (4R)-1-[2-chloro-5-fluorobenzoyl)amino-3-methoxybenzoyl]-1,2,3,5- tetrahydro-spiro[4h-1-benzazepine-4,1'-[2]cyclopentene]-3'-carboxylic acid” (priority 2006, published 2007)
“Also recorded” adds a separate entry of the source.

Columns and labels:
Assay type in all cases: physicochemical
[1] = Crystallization solvents list and observations (solubility of the compound in solvents); conditions: about 20 mg in 4 ml vial, about 40° C.
Protocol: About 20 mg of (4R)-1-[4-(2-chloro-5-fluorobenzoyl)amino-3-methoxybenzoyl]-1,2,3,5-tetrahydro-spiro[4H-1-benzazepine-4,1′-[2]cyclopentene]-3′-carboxylic acid was transferred into a 4 ml vial. Solvent was added in the vial to make the solution or suspension depending on solubility at about 40° C. on hot plate. The vial was removed from hot plate and kept at room temperature. The caps were put on without sealing. All the vials were placed in the hood for slow evaporation. After the solvent evaporated, the solid was investigated using PXRD, DSC, TGA, and microscope.

[2] = Water slurry study of polymorph stability
Protocol: Form 6 was crystallized from acetone, butanol, ethanol, isopropyl alcohol, hexane, and water. It melted with a peak at about 203-204° C. and a heat of fusion of about 75-80 J/g.

[3] = Solid form conversion on heating/desolvation via DSC; conditions: conversions occurred via DSC, upon heating/desolvation
Protocol: DSC analysis of each sample was performed using a Q100 Differential Scanning Calorimeter (TA Instruments, New Castle, Del., U.S.A.), which uses Thermal Advantage™ version 4.1.0 for operating instrument. In addition, the analysis software used was Universal Analysis 2000 for Windows 2000/XP, version 4.1D; Build 4.1.0.16 (Copyright © 1998-2004 TA Instruments-Water LLC).
For all of the DSC analyses, an aliquot of a sample was weighed into either a standard aluminium pan (Pan part #900786.091; lid part #900779.901) or a hermetic aluminium pan (Pan part #900793.901; lid part #900794.901 (TA Instruments, New Castle Del. USA)). Non-solvated samples were loaded into standard pans and were sealed either by crimping for dry samples or press fitting for wet samples (such as slurries). Solvated samples (including hydrates) were loaded into hermetic pans and hermetically sealed. The sample pan was loaded into the Q100 Differential Scanning Calorimeter, which is equipped with an autosampler, and a thermogram was obtained by individually heating the same using the control software at a rate of 10° C./minute from Tmin (typically 25° C.) to Tmax (typically 275° C.) using an empty aluminium pan as a reference. Dry nitrogen (compressed nitrogen, grade 4.8 (BOC Gases, Murray Hill, N.J. USA)) was used as a sample purge gas and was set at a flow rate of 50 mL/minute. Thermal transitions were viewed and analyzed using the analysis software provided with the instrument.
At least 10 forms were discovered based on distinguished PXRD patterns (all conversions occurred via DSC; such conversions can also occur under ambient conditions at a slower pace).

SMILES: COc1cc(C(=O)N2CC[C@]3(C=C(C(=O)O)CC3)Cc3ccccc32)ccc1NC(=O)c1cc(F)ccc1Cl [Compound of Formula (I), (4R)-1-[4-(2-chloro-5-fluorobenzoyl)amino-3-methoxybenzoyl]-1,2,3,5-tetrahydro-spiro[4H-1-benzazepine-4,1′-[2]cyclopentene]-3′-carboxylic acid]
- Observation (solubility) ([1]; 1,4-Dioxane): Good solubility
- Observation (solution or suspension) ([1]; 1,4-Dioxane): Solution
- Observation (solubility) ([1]; Acetone): Good solubility
- Observation (solution or suspension) ([1]; Acetone): Solution
- Observation (solubility) ([1]; Acetonitrile): Good solubility
- Observation (solution or suspension) ([1]; Acetonitrile): Solution
- Observation (solubility) ([1]; Butanol): Medium solubility
- Observation (solution or suspension) ([1]; Butanol): Solution
- Observation (solubility) ([1]; Dichloromethane): Good solubility
- Observation (solution or suspension) ([1]; Dichloromethane): Solution
- Observation (solubility) ([1]; Ethanol): Medium solubility
- Observation (solution or suspension) ([1]; Ethanol): Solution
- Observation (solubility) ([1]; Ethyl acetate): Good solubility
- Observation (solution or suspension) ([1]; Ethyl acetate): Solution
- Observation (solubility) ([1]; Hexane): Poor solubility
- Observation (solution or suspension) ([1]; Hexane): Suspension
- Observation (solubility) ([1]; Isopropyl alcohol): Medium solubility
- Observation (solution or suspension) ([1]; Isopropyl alcohol): Solution
- Observation (solubility) ([1]; Methanol): Medium solubility
- Observation (solution or suspension) ([1]; Methanol): Solution
- Observation (solubility) ([1]; Nitromethane): Good solubility
- Observation (solution or suspension) ([1]; Nitromethane): Solution
- Observation (solubility) ([1]; Toluene): Solution is not clear
- Observation (solution or suspension) ([1]; Toluene): Precipitation
- Observation (solubility) ([1]; Water): Poor wetability
- Observation (solution or suspension) ([1]; Water): Suspension

SMILES: COc1cc(C(=O)N2CC[C@]3(C=C(C(=O)O)CC3)Cc3ccccc32)ccc1NC(=O)c1cc(F)ccc1Cl [Form 1, (4R)-1-[4-(2-chloro-5-fluorobenzoyl)amino-3-methoxybenzoyl]-1,2,3,5-tetrahydro-spiro[4H-1-benzazepine-4,1′-[2]cyclopentene]-3′-carboxylic acid]
- Solid form conversion in water slurry ([2]; equal amount of forms 1, 5 and 6 mixed in water for more than 76 hours): converted to form 6

SMILES: COc1cc(C(=O)N2CC[C@]3(C=C(C(=O)O)CC3)Cc3ccccc32)ccc1NC(=O)c1cc(F)ccc1Cl [Form 2, (4R)-1-[4-(2-chloro-5-fluorobenzoyl)amino-3-methoxybenzoyl]-1,2,3,5-tetrahydro-spiro[4H-1-benzazepine-4,1′-[2]cyclopentene]-3′-carboxylic acid]
- Solid form conversion (physical stability) ([3]; listed as 2): (solvate converted to form 6)

SMILES: COc1cc(C(=O)N2CC[C@]3(C=C(C(=O)O)CC3)Cc3ccccc32)ccc1NC(=O)c1cc(F)ccc1Cl [Form 3, (4R)-1-[4-(2-chloro-5-fluorobenzoyl)amino-3-methoxybenzoyl]-1,2,3,5-tetrahydro-spiro[4H-1-benzazepine-4,1′-[2]cyclopentene]-3′-carboxylic acid]
- Solid form conversion (physical stability) [3]: converted to form 5
- Solid form conversion (physical stability) ([3]; listed as 3): (solvate converted to form 5)

SMILES: COc1cc(C(=O)N2CC[C@]3(C=C(C(=O)O)CC3)Cc3ccccc32)ccc1NC(=O)c1cc(F)ccc1Cl [Form 4, (4R)-1-[4-(2-chloro-5-fluorobenzoyl)amino-3-methoxybenzoyl]-1,2,3,5-tetrahydro-spiro[4H-1-benzazepine-4,1′-[2]cyclopentene]-3′-carboxylic acid]
- Solid form conversion (physical stability) ([3]; listed as 4): (solvate converted to an amorphous form)

SMILES: COc1cc(C(=O)N2CC[C@]3(C=C(C(=O)O)CC3)Cc3ccccc32)ccc1NC(=O)c1cc(F)ccc1Cl [Form 6, (4R)-1-[4-(2-chloro-5-fluorobenzoyl)amino-3-methoxybenzoyl]-1,2,3,5-tetrahydro-spiro[4H-1-benzazepine-4,1′-[2]cyclopentene]-3′-carboxylic acid]
- Thermodynamic stability among polymorphs ([2]; from highest melting temperature and heat of fusion, confirmed by water slurry study): thermodynamically most stable polymorph

SMILES: COc1cc(C(=O)N2CC[C@]3(C=C(C(=O)O)CC3)Cc3ccccc32)ccc1NC(=O)c1cc(F)ccc1Cl [Form 7, (4R)-1-[4-(2-chloro-5-fluorobenzoyl)amino-3-methoxybenzoyl]-1,2,3,5-tetrahydro-spiro[4H-1-benzazepine-4,1′-[2]cyclopentene]-3′-carboxylic acid]
- Solid form conversion (physical stability) [3]: converted to form 1; also recorded: ultimately to form 6
- Solid form conversion (physical stability) ([3]; listed as 7): (solvate converted to form 1)
- Solid form conversion (physical stability) ([3]; listed as form 7): converted to form 1

SMILES: COc1cc(C(=O)N2CC[C@]3(C=C(C(=O)O)CC3)Cc3ccccc32)ccc1NC(=O)c1cc(F)ccc1Cl [Form 8, (4R)-1-[4-(2-chloro-5-fluorobenzoyl)amino-3-methoxybenzoyl]-1,2,3,5-tetrahydro-spiro[4H-1-benzazepine-4,1′-[2]cyclopentene]-3′-carboxylic acid]
- Solid form conversion (physical stability) [3]: converted to form 1
- Solid form conversion (physical stability) ([3]; listed as 8): (solvate converted to form 1)
- Solid form conversion (physical stability) ([3]; listed as form 8): converted to form 1
